Results taken from publication PMC11396935, “Exploration of Compounds with 2-Phenylbenzo[d]oxazole Scaffold as Potential Skin-Lightening Agents through Inhibition of Melanin Biosynthesis and Tyrosinase Activity” (Molecules, 2024).
“Also recorded” adds a separate entry of the source. Like-named read-outs stand apart in the source and are kept apart here.

How the values were obtained:
[1] = molecular target: T1, mushroom tyrosinase (Agaricus bisporus, UniProt C7FF04); assay: Mushroom tyrosinase activity inhibition assay (L-tyrosine or L-dopa as substrate); type: biochemical; settings: for IC50: mushroom tyrosinase, 37 °C, mean ± SEM of triplicates
T1 construct: purchased Sigma-Aldrich (St. Louis, MO, USA)
Experimental: 3.3. Tyrosinase Activity Assay Using Mushroom Tyrosinase
The tyrosinase inhibitory activity of the 2-phenylbenzoxazoles was evaluated using a mushroom tyrosinase activity assay, following a previously described method. An aqueous substrate mixture, consisting of phosphate buffer (pH 6.5; 17.2 mM) and L-tyrosine or L-dopa (345 μM), was prepared. A 96-well plate containing the test sample in dimethyl sulfoxide (DMSO) solution (10 μL), aqueous mushroom tyrosinase solution (20 μL; 200 units), and aqueous substrate mixture (170 μL) in each well was incubated at 37 °C for 15 min for L-dopa and 30 min for L-tyrosine, respectively.

[2] = tested on: B16F10 cells; assay: Cellular melanin content assay in B16F10 cells; type: cell-based, murine; settings: 72 h; for melanin content in B16F10 cells: 1, 2, 5 μM, α-MSH 1 μM + IBMX 200 μM; for melanin content in B16F10 cells at 5 μM vs kojic acid: compound 5 μM, kojic acid 5 μM, α-MSH + IBMX
Experimental: The B16F10 cells were exposed to each compound (1, 2, and 5 μM) for 1 h. Following this, stimulators (1 μM α-MSH [α-melanocyte-stimulating hormone] and 200 μM IBMX [3-isobutyl-1-methylxanthine]) were treated for 72 h. Kojic acid (5 μM) was utilized as a comparative control.
3.8. Cellular Melanin Content Level Assay in B16F10 Cells
The effects of compounds 3, 8, and 13 on B16F10 cellular melanin production were investigated using a previously reported method. B16F10 cells (5 × 10^3 cells per well) were seeded in a 6-well plate and cultured under the same conditions as the cell culture for 24 h. […] Stimulators, including 1 μM α-melanocyte-stimulating hormone (α-MSH) and 200 μM 3-isobutyl-1-methylxanthine (IBMX), were then added. After 72 h of cultivation, the cells were rinsed with PBS, detached from the bottom of each well using Trypsin-EDTA, and centrifuged for 10 min at 10,000× g and 4 °C. The obtained pellets were lysed with 100 μL of 1N-NaOH solution for 1 h at 60 °C and transferred to a 96-well plate. The optical density was measured at 405 nm using an ELISA reader. Normalization was conducted using a Pierce BCA Protein Assay Kit (Thermo Scientific, MA, USA).
Melanin content (%) = (ΔODsam/ΔODcon) × 100%, where ODsam and ODcon represent the optical densities of the sample and control, respectively.

[3] = tested on: zebrafish larvae; assay: In vivo depigmentation experiment using zebrafish embryos
Experimental: Zebrafish embryos were used in this study. […] The zebrafish embryos were obtained through natural mating in our laboratory. The chorion of the zebrafish embryos was removed 24 h post-fertilization (hpf).
In Vivo Depigmentation Experiment Using Zebrafish Embryos
A depigmentation experiment was performed using zebrafish embryos, as previously described [38, 49, 50]. Wild-type zebrafish (Danio rerio) were maintained in a fish tank at 28 °C and fed with dried brine shrimp (Artemia salina, San Francisco Bay Brand, San Francisco, CA, USA) three times daily. The zebrafish embryos were obtained through natural mating in mating cages. The obtained zebrafish embryos were transferred to a 90 mm culture dish containing 200 μL of E3-methylene blue (MB) solution, consisting of 0.001% MB, 0.17 mM KCl, 0.33 mM CaCl2, 0.33 mM MgSO4, and 5 mM NaCl, and incubated in an incubator set at 28 °C. At 24 h post-fertilization (hpf), the zebrafish embryos were dechorionated using pronase (Sigma-Aldrich, St. Louis, MO, USA). […] The 48-well plates were incubated in an incubator set at 28 °C for 48 h. At 76 hpf, the zebrafish larvae were mounted on a 1% methylcellulose block after anesthesia with tricaine methanesulfonate (Thermo Fisher Scientific, Waltham, MA, USA), and photographs of the zebrafish larvae were obtained using a SMZ745T stereoscopic microscope (Nikon, Tokyo, Japan). The pigmented areas of the zebrafish larvae were determined using the CS analyzer 3.0 image analysis software (ATTO, Tokyo, Japan).

[4] = tested on: tyrosinase activity in zebrafish larvae; assay: Tyrosinase activity in zebrafish larvae; type: in vivo, zebrafish (Danio rerio); settings: compound 8 0.025 mM; kojic acid 20 mM; treated 28 hpf, read 74 hpf
Experimental: (§1) . Zebrafish embryos obtained by natural mating were dechorionated at 24 hpf and treated with compound 8 (0.025 mM) or kojic acid (20 mM) at 28 hpf. After 46 h, the melanin content and tyrosinase activity were determined.
(§2) 3.13. Measurement of Melanin Content and Tyrosinase Activity in Zebrafish Larvae
(§3) The effects of the 2-phenylbenzo[d]oxazole compound 8 on the melanin content and tyrosinase activity in the zebrafish larvae were assessed using a previously defined procedure with minor modifications. To quantify the melanin content in the zebrafish larvae, zebrafish embryos were obtained through natural mating and operated in a similar manner to the in vivo depigmentation experiment (25 zebrafish embryos per well in a 24-well plate; dechorionation at 24 hpf; test sample treatment (8 [0.025 mM] and kojic acid [20 mM; positive control]) at 28 hpf). Melanin quantification and tyrosinase activity were quantified at 74 hpf. For melanin quantification, the zebrafish larvae were lysed in RIPA buffer (Biosesang, Gyeonggi-do, Korea) and homogenized using a sonicator. […] The absorbance was measured at 405 nm using a microplate reader. For the tyrosinase activity measurement, the supernatants were transferred to new Eppendorf tubes and the protein was quantified using a Pierce BCA protein assay kit, with the absorbance being measured at 570 nm using a microplate reader. […]

[5] = tested on: zebrafish larvae; assay: Melanin content in zebrafish larvae; type: in vivo, zebrafish (Danio rerio); settings: compound 8 0.025 mM; kojic acid 20 mM; treated 28 hpf, read 74 hpf
Experimental: as §1, §2, §3

[6] = substrate L-dopa, 15 min, read-out: IC50 Values, L-Dopa
[7] = substrate L-tyrosine, 30 min, read-out: IC50 Values, L-Tyrosine
[8] = kojic acid 20 mM, compound 8 0.025 mM, compound 13 0.025 and 0.05 mM, 76 hpf

T1 sequence (C7FF04 1-392 limits assumed): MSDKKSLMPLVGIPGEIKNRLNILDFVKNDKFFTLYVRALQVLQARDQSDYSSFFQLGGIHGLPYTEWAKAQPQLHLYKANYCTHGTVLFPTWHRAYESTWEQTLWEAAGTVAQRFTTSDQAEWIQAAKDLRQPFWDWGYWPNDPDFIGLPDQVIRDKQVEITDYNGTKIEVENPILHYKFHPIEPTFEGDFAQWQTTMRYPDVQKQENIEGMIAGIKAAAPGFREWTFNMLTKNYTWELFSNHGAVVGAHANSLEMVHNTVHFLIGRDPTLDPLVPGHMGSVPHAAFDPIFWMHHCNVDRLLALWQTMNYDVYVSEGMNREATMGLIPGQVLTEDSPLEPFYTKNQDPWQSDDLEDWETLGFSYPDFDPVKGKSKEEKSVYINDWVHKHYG

Row | IC50 [1, 6] | IC50 [1, 7] | tyrosinase potency relative to kojic acid ([1]; substrate L-tyrosine) | SMILES | melanin content in B16F10 cells [2] | melanin content in B16F10 cells at 5 μM vs kojic acid [2] | depigmentation effect on zebrafish larvae (photographs) [3, 8] | toxicity in zebrafish embryos ([3]; 0.05 mM) | pigmentation area of zebrafish larvae (CS analyzer) [3, 8] | % tyrosinase activity in zebrafish larvae, vs untreated control (100%) [4] | melanin content of zebrafish larvae, vs untreated control (100%) [5]
1 | 16.8 ± 0.57 µM | 0.51 µM | 28 times | Cc1ccc2nc(-c3ccc(O)cc3O)oc2c1 [Compound 3, 4-(6-Methylbenzo[d]oxazol-2-yl)benzene-1,3-diol] | decreased the melanin content in a concentration-dependent manner | decreased the melanin content levels much more strongly than kojic acid |  |  |  |  | 
2 | 20.8 ± 1.02 µM | 3.5 ± 0.07 µM |  | Cc1ccc2oc(-c3ccc(O)cc3O)nc2c1 [Compound 13, 4-(5-Methylbenzo[d]oxazol-2-yl)benzene-1,3-diol] | decreased the melanin content in a concentration-dependent manner |  | substantially higher depigmentation effects on zebrafish larvae than kojic acid; also recorded: significantly stronger depigmentation efficacy than kojic acid |  |  |  | 

Row | SMILES | IC50 [1, 6] | IC50 [1, 7] | tyrosinase potency relative to kojic acid ([1]; substrate L-tyrosine) | melanin content in B16F10 cells [2] | melanin content in B16F10 cells at 5 μM vs kojic acid [2] | depigmentation effect on zebrafish larvae (photographs) [3, 8] | toxicity in zebrafish embryos ([3]; 0.05 mM) | pigmentation area of zebrafish larvae (CS analyzer) [3, 8] | % tyrosinase activity in zebrafish larvae, vs untreated control (100%) [4] | melanin content of zebrafish larvae, vs untreated control (100%) [5]
3 | Oc1ccc(-c2nc3ccc(Cl)cc3o2)c(O)c1 [Compound 8, 4-(6-Chlorobenzo[d]oxazol-2-yl)benzene-1,3-diol] | 20.4 ± 1.99 µM | 2.22 ± 0.16 µM |  | decreased the melanin content in a concentration-dependent manner | decreased the melanin content levels much more strongly than kojic acid | substantially higher depigmentation effects on zebrafish larvae than kojic acid; also recorded: strong potency at 0.025 mM, similar to 13 at 0.05 mM | weak toxicity | smallest pigmentation area | 29% | 35%
